The text below walks through data of patent publication US11077177B2, “Universal cancer vaccine” (priority 2016, dated 2021).

Assay [1] relates to HLA molecule (types A1, A2, A3, A11, A24, B7 and B44). The assay can be described thus: HLA type bound by altered telomerase peptides (Table 1). Format: binding, human. The note with it: MHC class I HLA type bound by the peptide; no test method described; listed as SEQ ID NO: 13.
For another assay, the system named is CD 8+ T cell repertoire. The assay can be described thus: Tetramer staining of peripheral blood mononuclear cells by flow cytometry after immunization with an altered peptide (FIG. 3B). The class given is cell-based.

As to “YLFFYRKSV (listed as Homo sapiens) [SEQ ID 13]”, the “HLA TYPE BOUND” value in assay [1] is given as “HLA-A2”. The “expansion of CD 8+ T cell repertoire cross-reacting with the naturally occurring peptide” value in the assay on CD 8+ T cell repertoire is “this approach is feasible”.
